{
  "source": "patent US9994536B2",
  "about": "“Compounds and methods of treating neurological disorders” (TORREY PINES INSTITUTE FOR MOLECULAR STUDIES, priority 2014, dated 2018)",
  "key": {"[1]": {"assay": "Brain levels of compound after i.p. injection (BBB passage), LC-MS", "format": "in vivo, mouse", "procedure": "(3). Since blood brain barrier (BBB) is the main obstacle for drug development for any CNS disorders, we first wanted to verify whether compound THPI-244 enters the brain. We followed protocols exactly as published previously from our laboratory (Hayes, C D et al., 2013, BMC Med. 26, 11.81). […] We generated a standard graph (FIG. 1.4 (middle)) to be used in the quantitation of THPI-244 in the brain after intraperitoneal (i.p.) injections at 0.2 mg/kg body weight."}, "[2]": {"tested_on": "sAPPα in supernatants of 7WD10 cells", "assay": "Western blot sAPPα release assay, 7WD10 cells", "format": "cell-based", "conditions": "10 nM, 7WD10 supernatant", "procedure": "(2). To ascertain that hits identified as a result of AlphaLISA assay are not due to artifacts of the detection system, the sAPPα levels were measured by Western blots as a secondary assay downstream of primary HTS to confirm hits or discard artifacts of the AlphaLISA assay. The assay was performed using a range of concentrations of hit compounds (10-5,000 nM). A hit compound named thiazole piperazine #244 (THPI-244) and THPI-326 induced dose-dependent increase of sAPPα in supernatants of 7WD10 cells (FIG. 1.3). […] Since compound THPI-244 increased sAPPα levels more than THPI-326, we focused on THPI-244 for further validation.\nWestern blot sAPPα release assay. 7WD10 cells were grown in 6-well plates and treated with test compounds and SAHA (vorinostat) at several concentrations in duplicate wells. After 24 h of drug exposure, the conditioned media (CM) was collected, centrifuged to remove cell debris and subjected to SDS-PAGE electrophoresis. sAPPα (6E10, mouse IgG from IBL America ltd) was detected using indicated antibody. […] Samples were subjected to SDS-PAGE, transferred and immunoblotted with indicated antibodies and detected by enhanced chemiluminescence method. Quantification of Western blot signals was done using ImageJ software."}, "TrkA": {"biological_target": "TrkA (Homo sapiens, UniProt P04629)", "sequence (P04629 33-796)": "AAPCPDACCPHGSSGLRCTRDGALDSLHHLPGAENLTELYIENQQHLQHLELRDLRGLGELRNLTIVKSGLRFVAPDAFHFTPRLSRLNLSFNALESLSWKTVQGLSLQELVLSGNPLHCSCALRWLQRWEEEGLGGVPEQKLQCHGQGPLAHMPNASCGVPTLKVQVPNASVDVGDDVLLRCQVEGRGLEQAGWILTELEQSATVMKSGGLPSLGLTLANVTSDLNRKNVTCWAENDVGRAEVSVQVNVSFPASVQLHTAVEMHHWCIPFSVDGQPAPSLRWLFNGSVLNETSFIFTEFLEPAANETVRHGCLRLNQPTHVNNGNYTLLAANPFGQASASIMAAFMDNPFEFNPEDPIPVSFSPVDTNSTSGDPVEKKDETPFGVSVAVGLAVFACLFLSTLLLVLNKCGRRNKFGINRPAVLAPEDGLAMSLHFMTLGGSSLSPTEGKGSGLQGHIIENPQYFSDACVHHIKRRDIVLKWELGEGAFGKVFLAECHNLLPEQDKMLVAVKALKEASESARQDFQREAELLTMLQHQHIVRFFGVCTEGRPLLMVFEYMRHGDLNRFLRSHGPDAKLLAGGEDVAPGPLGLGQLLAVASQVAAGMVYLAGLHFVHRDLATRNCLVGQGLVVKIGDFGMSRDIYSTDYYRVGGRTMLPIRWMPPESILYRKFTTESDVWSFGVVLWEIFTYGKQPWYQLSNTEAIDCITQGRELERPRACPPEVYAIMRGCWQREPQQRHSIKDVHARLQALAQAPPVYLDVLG", "assay": "TrkA protein level immunoblot, NT2 cells, with or without PKC inhibitor", "format": "cell-based", "set-up": "endogenous in cells; host or cells: NT2 cells (stably expressing APP751)", "procedure": "(3). THPI-244 increases TrkA receptor levels independent of protein kinase C (PKC). Next to clarify whether increased sAPPα levels depends on increased TrkA activation, NT2 cells were treated with THPI-244 with or without TrkA inhibitor (cat #GW 441756, Tocris Bioscience) at 50 nM final concentration. After 24 h, sAPPα levels were quantified from the conditioned medium by immunoblots. […] We next wanted to address whether increased TrkA protein levels by THPI-244 depends on PKC since PKC activators are well-known to induce sAPPα secretion (Etcheberringaray, R., et al., 2004, PNAS, 101, 11141-11146). NT2 cells were similarly treated with THPI-244 at 100 nM with or without PKC inhibitor (GF 109203, cat #0741, Tocris Bioscience) at 1.0 nM and TrkA protein levels were quantified by immunoblots as shown in FIG. 1.10 (right). […] Thus increased sAPPα level by THPI-244 is through upregulation of TrkA receptor independent of PKC."}, "human primary neurons [3]": {"tested_on": "human primary neurons", "assay": "Neurite outgrowth, Sholl analysis of dendritic intersections", "format": "cell-based", "source_text": "(4). The most important property of THPI-244 is its ability to increase neurite outgrowth and dendritic intersections in human primary neurons. Since both TrkA and sAPPα promote neuron growth and provide trophic support, we tested whether treatment of human primary neurons with THPI-244 induces neurite outgrowth. […] Considering an enormous potential for such an excellent results in human neurons, we did systematic analysis by also treating neurons in the presence of TrkA inhibitor to verify if the increased neurite outgrowth is mediated by TrkA receptor. Sholl analysis using ImageJ software of individual neurons (at least 30 per group) immunostained for MAP2 antibody confirmed our initial findings. […] This confirmed that THPI-244 increases TrkA protein levels which has vital role in regulating neuritic outgrowth."}, "[4]": {"tested_on": "fibroblasts derived directly from AD patients", "assay": "MTT cytotoxicity assay, AD fibroblasts", "format": "cell-based", "conditions": "24 h exposure, human AD fibroblasts", "source_text": "(§1) (4). Toxicity is another crucial limitation for successful drug development as evidenced by recent failure of γ-secretase inhibitors at the clinical trials due to cytotoxicity (Cole, S L and Vassar, R, 2007, Mol. Neurodeg. 2, 22-47; Doody R S, et al. 2013. N. Eng. J. Med. 369, 341-350). Therefore we measured cytotoxicity by very sensitive MTT assay as described previously (Hayes, C D., et al. 2013, BMC Medicine. 26, 11.81; 23; Hayes, C D., et al., 2012, PLoS One 7, e45841) in human primary neurons obtained from a commercial source (cat #1520, ScienCell, Carlsbad, Calif., USA) and fibroblasts derived directly from AD patients (cat #AG06263C, Coriell Institute Cell repository supported by NINDS, NIH). […] We directly used human neurons for toxicity studies so as to reduce the chances of future failure at a later stage due to toxicity."}, "P75NTR": {"tested_on": "P75NTR", "assay": "Signal transduction analysis, P75NTR", "format": "cell-based, human", "conditions": "NT2 cells", "source_text": "(§2) (2). THPI-244 increases sAPPα by a novel mechanism of upregulating TrkA, a neurotrophic receptor. Therefore, in addition to increasing neuroprotective sAPPα and decreasing toxic Aβ, THPI-244 mediated increased TrkA protein levels are expected to provide neurotrophic support. Following the validation of the effect of THPI-244 in increasing sAPPα levels in CHO cells, NT2 cells, AD fibroblasts and human primary neurons, we were interested in identifying the molecular target of THPI-244 for unraveling the molecular mechanism by which it increases sAPPα which in turn can predict toxicity profile and whether to pursue long-term studies. Increased protein levels of both native and phosphorylated form of TrkA in NT2 cells and mouse brains by THPI-244 validated TrkA as the target."}, "PI3Kα": {"tested_on": "PI3Kα", "assay": "Signal transduction analysis, PI3Kα", "format": "cell-based, human", "conditions": "NT2 cells", "source_text": "as §2"}, "human primary neurons [5]": {"tested_on": "human primary neurons", "assay": "MTT cytotoxicity assay, human primary neurons", "format": "cell-based", "conditions": "24 h exposure", "source_text": "as §1"}},
  "data": [
    {"smiles": "O=C(Cc1ccccc1)N[C@H](CNc1nc(CN2CCN(C(=O)Cc3ccccc3)CC2)cs1)c1ccccc1", "note": "[THPI-244]", "values": [
      {"measurement": "time to maximum level in brain", "setting": "[1]; 0.2 mg/kg i.p., mouse", "value": "≤ 5", "unit": "min"},
      {"measurement": "amount remaining in brain", "setting": "[1]; 240 min after 0.2 mg/kg i.p.", "value": "negligible amount"},
      {"measurement": "increase of sAPPα over untreated control cells (Western blot)", "setting": "[2]", "value": 2, "unit": "fold"},
      {"measurement": "TrkA protein level", "setting": "TrkA; THPI-244 100 nM", "value": 197, "unit": "%"},
      {"measurement": "TrkA protein level", "setting": "TrkA; THPI-244 100 nM plus PKC inhibitor GF 109203 1.0 nM", "value": 192, "unit": "%"},
      {"measurement": "number of dendritic intersections", "setting": "human primary neurons [3]; treated 2DIV to 6DIV", "value": "highly significant increase"},
      {"measurement": "number of dendritic intersections", "setting": "human primary neurons [3]; with TrkA inhibitor, 2DIV to 6DIV", "value": "almost completely prevented the increased intersections"},
      {"measurement": "lowest concentration with significant cytotoxicity", "setting": "[4]", "value": 50, "unit": "µM"},
      {"measurement": "effect on P75NTR", "setting": "P75NTR", "value": "did not affect"},
      {"measurement": "effect on PI3Kα pathway", "setting": "PI3Kα", "value": "activation of PI3Kα"},
      {"measurement": "lowest concentration with significant cytotoxicity", "setting": "human primary neurons [5]", "value": 40, "unit": "µM"}
    ]}
  ]
}
